Data published in patent publication US7642058B2, “Method and apparatus for characterization of interactions” (GE Healthcare Bio-Sciences AB, priority 2003, dated 2010).

Assays:
[1] = target: anti-maltose antibody; assay: Pulse injection SPR steady state affinity, maltose on immobilized anti-maltose antibody; conditions: read-out: average KD; pulse injection method, 25° C., initial concentrations 0.05 and 0.1 mM
Procedure: Roughly the same amount of another antibody, anti-AFP, was immobilized in a reference flowcell in order to minimise errors in reference subtraction due to the high immobilization level. These two proteins were immobilized using the “amine coupling” procedure as follows: HBS-EP was used as running buffer with a constant flow rate of 5 μl/min. After activation for 12 min. with EDC, target (anti-maltose or anti-AFP, 50 μg/ml in 10 mM sodium acetate, pH 5.0) was injected for 7 min., followed by a 12-min. deactivation. Immobilization and all measurements on the surface were performed at 25° C.
Samples of different initial concentrations (0.05 and 0.1 mM) were injected over the surface. The association and dissociation phases of each pulse were 12 seconds. […] Each experiment started with a blank run, i.e., a series of pulses of running buffer alone. The concentration of the first pulse, C1, was assumed to be equal to the concentration in the vial. […]
Response levels were obtained by taking the average of 10 data points at equilibrium. […] The constant multi-concentration pulse series were evaluated with a non-linearly fitted Req versus C plot, whereby KA, KD and Rmax values were obtained directly from the software.

[2] = target: anti-maltose antibody; assay: Conventional SPR affinity assay, maltose on immobilized anti-maltose antibody; format: binding; conditions: 12 injections 0 to 1500 μM, 25° C.
Procedure: In order to compare the results obtained with pulse injections to results obtained with the conventional method, 12 maltose injections of concentrations ranging from 0 to 1500 μM were performed. The injection time was 15 sec. Data was evaluated from a Req versus C plot using the BIAevaluation software.

[3] = target: HSA (Homo sapiens, UniProt P02768)
Chain of HSA (P02768 25-609 limits assumed): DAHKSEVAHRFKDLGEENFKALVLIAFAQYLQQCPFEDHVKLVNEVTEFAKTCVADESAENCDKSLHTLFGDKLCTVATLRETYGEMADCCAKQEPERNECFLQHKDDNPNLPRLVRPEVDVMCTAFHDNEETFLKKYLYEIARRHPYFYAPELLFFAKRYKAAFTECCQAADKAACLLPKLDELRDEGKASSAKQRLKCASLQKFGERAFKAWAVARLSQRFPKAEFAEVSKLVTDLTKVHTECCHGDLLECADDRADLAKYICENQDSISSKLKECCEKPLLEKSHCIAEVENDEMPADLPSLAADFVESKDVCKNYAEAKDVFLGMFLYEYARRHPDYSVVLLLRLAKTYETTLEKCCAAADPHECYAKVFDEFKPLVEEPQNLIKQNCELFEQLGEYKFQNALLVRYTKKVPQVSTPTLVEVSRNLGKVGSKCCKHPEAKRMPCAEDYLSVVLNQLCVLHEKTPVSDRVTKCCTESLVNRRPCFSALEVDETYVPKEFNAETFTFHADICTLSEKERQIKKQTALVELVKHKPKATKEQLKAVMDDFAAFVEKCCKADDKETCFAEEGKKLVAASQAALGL

SMILES	Kd [1]	Kd [2]	site competition on HSA, pair digitoxin and warfarin [3]
OC[C@H]1O[C@H](O[C@H]2[C@H](O)[C@@H](O)C(O)O[C@@H]2CO)[C@H](O)[C@@H](O)[C@@H]1O (mixture of isomers) [maltose]	9 mM	8.5 mM	–
C[C@H]1O[C@@H](O[C@H]2[C@@H](O)C[C@H](O[C@H]3[C@@H](O)C[C@H](O[C@H]4CC[C@@]5(C)[C@H](CC[C@@H]6[C@@H]5CC[C@]5(C)[C@@H](C7=CC(=O)OC7)CC[C@]65O)C4)O[C@@H]3C)O[C@@H]2C)C[C@H](O)[C@@H]1O [Digitoxin, digitoxin]	–	–	non-competitive binders
